# Experimental data from ChEMBL document CHEMBL1148870, “Novel inhibitors of VEGF receptors-1 and -2 based on azole-5-carboxamide templates” (Bioorg Med Chem Lett, 2007).
# Columns and labels:
# [1] = biological target: Epidermal growth factor receptor (Homo sapiens) (UniProt P00533); assay: Inhibition of ErbB1 at 10 uM; parameters: scale not given: the % may be the effect or the level left
# [2] = biological target: T1, Vascular endothelial growth factor receptor 2 (Homo sapiens, UniProt P35968); assay: Inhibition of VEGFR2 assessed as inhibition of phosphorylation in human 293 cells by cell-based ELISA; type: functional, HEK293
# [3] = biological target: Insulin-like growth factor 1 receptor (Homo sapiens) (UniProt P08069); assay: Inhibition of IGF1R at 10 uM; parameters: scale not given: the % may be the effect or the level left
# [4] = biological target: Receptor tyrosine-protein kinase erbB-2 (Homo sapiens) (UniProt P04626); assay: Inhibition of ErbB2/Her2 at 10 uM; parameters: scale not given: the % may be the effect or the level left
# Homo sapiens [5] = organism: Homo sapiens; assay: Inhibition of PKA at 10 uM; parameters: scale not given: the % may be the effect or the level left
# [6] = biological target: RAC-alpha serine/threonine-protein kinase (Homo sapiens) (UniProt P31749); assay: Inhibition of PKB/Akt at 10 uM; parameters: scale not given: the % may be the effect or the level left
# [7] = biological target: Vascular endothelial growth factor receptor 1 (Homo sapiens, UniProt P17948); assay: Inhibition of VEGFR1 assessed as inhibition of phosphorylation in presence of 2 uM ATP by HTRF assay; type: functional
# [8] = biological target: Hepatocyte growth factor receptor (Homo sapiens) (UniProt P08581); assay: Inhibition of cMet at 10 uM; parameters: scale not given: the % may be the effect or the level left
# [9] = biological target: Receptor-type tyrosine-protein kinase FLT3 (Homo sapiens) (UniProt P36888); assay: Inhibition of Flt3 at 10 uM; parameters: scale not given: the % may be the effect or the level left
# Homo sapiens [10] = organism: Homo sapiens; assay: Inhibition of Cdk1 at 10 uM; parameters: scale not given: the % may be the effect or the level left
# [11] = biological target: Glycogen synthase kinase-3 beta (Homo sapiens) (UniProt P49841); assay: Inhibition of GSK3-beta at 10 uM; parameters: scale not given: the % may be the effect or the level left
# [12] = biological target: Cyclin-dependent kinase 2 (Homo sapiens) (UniProt P24941); assay: Inhibition of Cdk2 at 10 uM; parameters: scale not given: the % may be the effect or the level left
# Homo sapiens [13] = organism: Homo sapiens; assay: Inhibition of InR at 10 uM; parameters: scale not given: the % may be the effect or the level left
# [14] = biological target: T1, Vascular endothelial growth factor receptor 2; assay: Inhibition of VEGFR2 assessed as inhibition of phosphorylation in presence of 2 uM ATP by HTRF assay; type: functional
# [15] = biological target: Fibroblast growth factor receptor 1 (Homo sapiens) (UniProt P11362); assay: Inhibition of FGFR1 at 10 uM; parameters: scale not given: the % may be the effect or the level left
# Homo sapiens [16] = organism: Homo sapiens; assay: Inhibition of bcr-Abl at 10 uM; parameters: scale not given: the % may be the effect or the level left
# [17] = biological target: RAF proto-oncogene serine/threonine-protein kinase (Homo sapiens) (UniProt P04049); assay: Inhibition of Raf1 at 10 uM; parameters: scale not given: the % may be the effect or the level left
# [18] = biological target: Vascular endothelial growth factor receptor 3 (Homo sapiens) (UniProt P35916); assay: Inhibition of Flt4 at 10 uM; parameters: scale not given: the % may be the effect or the level left
# Chain of Receptor tyrosine-protein kinase erbB-2 (Homo sapiens) (P04626 whole entry): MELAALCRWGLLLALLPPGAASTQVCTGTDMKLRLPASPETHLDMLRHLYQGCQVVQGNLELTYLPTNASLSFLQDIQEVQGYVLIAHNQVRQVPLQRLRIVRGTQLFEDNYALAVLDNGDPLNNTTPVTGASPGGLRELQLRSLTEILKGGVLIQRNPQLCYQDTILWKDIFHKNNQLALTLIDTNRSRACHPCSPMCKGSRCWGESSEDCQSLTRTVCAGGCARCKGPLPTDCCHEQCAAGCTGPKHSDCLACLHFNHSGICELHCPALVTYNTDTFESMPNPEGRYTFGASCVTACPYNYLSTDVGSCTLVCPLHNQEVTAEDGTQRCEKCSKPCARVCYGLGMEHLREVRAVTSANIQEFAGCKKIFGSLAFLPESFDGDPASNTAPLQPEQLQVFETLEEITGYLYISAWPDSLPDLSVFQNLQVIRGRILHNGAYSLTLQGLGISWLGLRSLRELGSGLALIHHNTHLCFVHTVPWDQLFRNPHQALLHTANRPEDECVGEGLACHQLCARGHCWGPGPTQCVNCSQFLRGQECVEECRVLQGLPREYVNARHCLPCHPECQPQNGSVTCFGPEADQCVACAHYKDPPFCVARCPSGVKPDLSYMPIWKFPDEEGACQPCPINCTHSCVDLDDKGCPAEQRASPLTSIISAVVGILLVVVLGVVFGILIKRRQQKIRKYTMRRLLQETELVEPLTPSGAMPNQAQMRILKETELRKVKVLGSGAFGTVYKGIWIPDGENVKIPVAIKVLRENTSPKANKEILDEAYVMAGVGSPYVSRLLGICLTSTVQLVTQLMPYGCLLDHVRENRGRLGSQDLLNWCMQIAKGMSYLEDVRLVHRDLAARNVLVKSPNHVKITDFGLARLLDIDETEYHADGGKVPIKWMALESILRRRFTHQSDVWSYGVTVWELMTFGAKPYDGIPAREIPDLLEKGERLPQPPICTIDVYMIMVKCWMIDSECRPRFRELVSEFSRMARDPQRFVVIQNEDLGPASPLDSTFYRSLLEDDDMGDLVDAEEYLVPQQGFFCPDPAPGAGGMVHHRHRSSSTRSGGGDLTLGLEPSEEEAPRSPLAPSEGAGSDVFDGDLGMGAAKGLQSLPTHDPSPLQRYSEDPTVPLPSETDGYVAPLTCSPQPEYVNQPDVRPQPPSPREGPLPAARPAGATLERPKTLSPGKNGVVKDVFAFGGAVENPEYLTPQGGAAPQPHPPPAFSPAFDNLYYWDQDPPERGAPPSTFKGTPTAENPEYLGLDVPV
# T1 sequence (P35968 whole entry): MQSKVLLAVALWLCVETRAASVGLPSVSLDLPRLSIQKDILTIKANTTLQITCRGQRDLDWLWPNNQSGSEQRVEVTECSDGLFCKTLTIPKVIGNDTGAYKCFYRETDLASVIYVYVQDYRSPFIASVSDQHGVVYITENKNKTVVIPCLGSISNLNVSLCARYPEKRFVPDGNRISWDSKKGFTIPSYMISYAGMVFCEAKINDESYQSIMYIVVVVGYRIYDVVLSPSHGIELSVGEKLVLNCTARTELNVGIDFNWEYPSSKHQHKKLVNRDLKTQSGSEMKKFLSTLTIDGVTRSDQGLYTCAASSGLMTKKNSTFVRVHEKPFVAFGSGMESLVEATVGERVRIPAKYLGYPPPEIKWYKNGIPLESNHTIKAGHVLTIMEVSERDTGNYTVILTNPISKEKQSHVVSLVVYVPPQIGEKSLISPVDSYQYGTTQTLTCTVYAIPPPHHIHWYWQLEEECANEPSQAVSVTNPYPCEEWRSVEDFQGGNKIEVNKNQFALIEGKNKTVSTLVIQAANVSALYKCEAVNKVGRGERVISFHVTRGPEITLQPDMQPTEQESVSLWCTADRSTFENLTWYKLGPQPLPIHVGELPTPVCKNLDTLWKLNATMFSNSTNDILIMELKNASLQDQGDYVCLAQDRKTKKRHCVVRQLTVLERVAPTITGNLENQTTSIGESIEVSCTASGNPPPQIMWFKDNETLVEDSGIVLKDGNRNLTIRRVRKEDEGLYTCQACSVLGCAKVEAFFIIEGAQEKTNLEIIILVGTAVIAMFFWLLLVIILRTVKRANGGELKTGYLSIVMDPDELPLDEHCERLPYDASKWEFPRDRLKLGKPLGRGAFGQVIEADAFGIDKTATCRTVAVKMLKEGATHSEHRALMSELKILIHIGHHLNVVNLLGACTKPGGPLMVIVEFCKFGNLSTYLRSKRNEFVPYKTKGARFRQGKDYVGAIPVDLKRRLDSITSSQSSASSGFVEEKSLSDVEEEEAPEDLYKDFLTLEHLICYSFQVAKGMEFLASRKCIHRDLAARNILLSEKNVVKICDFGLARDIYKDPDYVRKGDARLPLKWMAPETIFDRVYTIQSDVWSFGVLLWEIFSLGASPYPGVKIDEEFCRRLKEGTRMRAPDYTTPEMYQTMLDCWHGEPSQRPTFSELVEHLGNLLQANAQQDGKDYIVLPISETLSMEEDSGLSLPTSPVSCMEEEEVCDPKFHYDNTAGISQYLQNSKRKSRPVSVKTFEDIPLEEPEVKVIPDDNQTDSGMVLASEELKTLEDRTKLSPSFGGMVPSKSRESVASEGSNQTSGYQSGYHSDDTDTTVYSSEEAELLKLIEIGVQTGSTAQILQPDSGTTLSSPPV
# Chain of Epidermal growth factor receptor (Homo sapiens) (P00533 whole entry): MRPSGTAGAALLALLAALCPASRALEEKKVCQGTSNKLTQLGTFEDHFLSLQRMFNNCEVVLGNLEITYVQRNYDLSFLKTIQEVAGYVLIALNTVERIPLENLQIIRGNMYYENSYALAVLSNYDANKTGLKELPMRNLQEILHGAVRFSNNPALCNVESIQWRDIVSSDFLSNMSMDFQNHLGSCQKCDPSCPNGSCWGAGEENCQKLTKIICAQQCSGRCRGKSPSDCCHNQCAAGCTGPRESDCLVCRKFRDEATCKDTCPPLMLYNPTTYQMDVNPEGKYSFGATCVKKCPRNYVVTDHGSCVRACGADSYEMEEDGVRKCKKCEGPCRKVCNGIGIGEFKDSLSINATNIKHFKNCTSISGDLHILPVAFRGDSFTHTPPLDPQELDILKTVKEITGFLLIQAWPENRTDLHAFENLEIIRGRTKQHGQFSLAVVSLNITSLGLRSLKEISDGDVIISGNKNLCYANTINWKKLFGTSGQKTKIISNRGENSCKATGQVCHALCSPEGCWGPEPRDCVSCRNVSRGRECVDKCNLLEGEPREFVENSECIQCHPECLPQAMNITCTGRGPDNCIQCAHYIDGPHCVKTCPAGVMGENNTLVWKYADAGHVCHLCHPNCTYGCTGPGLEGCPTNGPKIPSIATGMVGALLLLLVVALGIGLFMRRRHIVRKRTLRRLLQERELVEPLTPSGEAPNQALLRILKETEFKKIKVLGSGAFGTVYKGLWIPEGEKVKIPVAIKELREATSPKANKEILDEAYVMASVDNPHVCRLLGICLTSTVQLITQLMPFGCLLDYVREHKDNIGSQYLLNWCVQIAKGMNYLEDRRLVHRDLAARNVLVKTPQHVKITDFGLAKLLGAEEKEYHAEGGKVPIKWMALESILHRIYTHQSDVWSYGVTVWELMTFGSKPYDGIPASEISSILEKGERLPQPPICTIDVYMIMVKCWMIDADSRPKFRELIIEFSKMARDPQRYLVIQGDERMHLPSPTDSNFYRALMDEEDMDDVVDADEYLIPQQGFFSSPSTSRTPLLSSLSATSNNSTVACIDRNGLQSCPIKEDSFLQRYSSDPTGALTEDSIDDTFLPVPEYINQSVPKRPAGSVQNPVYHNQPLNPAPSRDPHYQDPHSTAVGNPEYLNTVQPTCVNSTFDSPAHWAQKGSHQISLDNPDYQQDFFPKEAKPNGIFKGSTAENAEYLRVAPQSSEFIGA
# Chain of RAC-alpha serine/threonine-protein kinase (Homo sapiens) (P31749 whole entry): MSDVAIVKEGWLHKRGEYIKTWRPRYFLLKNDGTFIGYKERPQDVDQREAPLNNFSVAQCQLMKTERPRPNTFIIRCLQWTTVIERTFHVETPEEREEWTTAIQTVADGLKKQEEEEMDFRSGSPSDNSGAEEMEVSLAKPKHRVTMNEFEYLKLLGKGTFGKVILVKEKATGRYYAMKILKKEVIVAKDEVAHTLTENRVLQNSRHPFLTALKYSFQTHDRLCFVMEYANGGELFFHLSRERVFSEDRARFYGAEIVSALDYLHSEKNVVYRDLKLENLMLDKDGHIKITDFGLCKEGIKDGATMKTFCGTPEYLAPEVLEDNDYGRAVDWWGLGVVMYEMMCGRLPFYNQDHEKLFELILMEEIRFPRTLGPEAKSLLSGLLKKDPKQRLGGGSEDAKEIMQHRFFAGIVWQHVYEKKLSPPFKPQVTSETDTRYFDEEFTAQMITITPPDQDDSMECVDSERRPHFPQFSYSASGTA
# Chain of RAF proto-oncogene serine/threonine-protein kinase (Homo sapiens) (P04049 whole entry): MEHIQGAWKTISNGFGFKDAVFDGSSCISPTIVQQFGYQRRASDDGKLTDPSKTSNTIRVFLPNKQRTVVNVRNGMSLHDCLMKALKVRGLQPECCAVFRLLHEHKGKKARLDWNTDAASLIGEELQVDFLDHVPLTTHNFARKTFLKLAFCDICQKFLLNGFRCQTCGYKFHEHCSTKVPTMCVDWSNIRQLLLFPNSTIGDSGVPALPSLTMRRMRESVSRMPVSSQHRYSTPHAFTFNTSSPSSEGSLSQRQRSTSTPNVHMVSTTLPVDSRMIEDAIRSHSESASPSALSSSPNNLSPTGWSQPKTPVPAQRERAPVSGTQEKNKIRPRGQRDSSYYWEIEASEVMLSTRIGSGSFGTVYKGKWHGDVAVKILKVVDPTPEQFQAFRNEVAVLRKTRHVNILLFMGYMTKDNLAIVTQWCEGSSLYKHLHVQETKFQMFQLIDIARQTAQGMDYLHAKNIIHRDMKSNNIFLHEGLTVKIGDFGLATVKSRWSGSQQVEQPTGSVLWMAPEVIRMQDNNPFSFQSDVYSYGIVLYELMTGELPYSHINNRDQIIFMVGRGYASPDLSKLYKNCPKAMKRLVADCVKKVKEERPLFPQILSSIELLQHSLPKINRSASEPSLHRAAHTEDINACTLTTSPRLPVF
Compound,Activity [1] [%],IC50 [2] [nM],Activity [3] [%],Activity [4] [%],Activity (Homo sapiens [5]) [%],Activity [6] [%],IC50 [7] [nM],Activity [8] [%],Activity [9] [%],Activity (Homo sapiens [10]) [%],Activity [11] [%],Activity [12] [%],Activity (Homo sapiens [13]) [%],IC50 [14] [nM],Activity [15] [%],Activity (Homo sapiens [16]) [%],Activity [17] [%],Activity [18] [%]
O=C(Nc1ccc(Cl)c(C(F)(F)F)c1)c1ccnn1CCc1ccncc1,< 30,450,> 30,> 30,> 30,> 30,2330,> 30,> 30,> 30,> 30,> 30,> 30,750,> 30,> 30,> 30,> 30
O=C(Nc1ccc(-c2ccccc2)cc1)c1ccnn1CCc1ccncc1,< 30,1560,> 30,> 30,> 30,> 30,2250,> 30,> 30,> 30,> 30,> 30,> 30,950,> 30,> 30,> 30,> 30
O=C(Nc1cnc2ccccc2c1)c1ccnn1CCc1ccncc1,< 30,1220,> 30,> 30,> 30,> 30,380,> 30,> 30,> 30,> 30,> 30,> 30,180,> 30,> 30,> 30,> 30
O=C(Nc1ccc(C(F)(F)F)c(Cl)c1)c1nccn1CCc1ccncc1,< 30,4950,> 30,> 30,> 30,> 30,4560,> 30,> 30,> 30,> 30,> 30,> 30,1310,> 30,> 30,> 30,> 30
O=C(Nc1ccc(Cl)cc1)c1ccnn1CCc1noc2ccccc12,< 30,> 10000,> 30,> 30,> 30,> 30,> 10000,> 30,> 30,> 30,> 30,> 30,> 30,> 10000,> 30,> 30,> 30,> 30
O=C(Nc1ccc(OC(F)(F)F)cc1)c1nccn1CCc1ccncc1,< 30,1050,> 30,> 30,> 30,> 30,4270,> 30,> 30,> 30,> 30,> 30,> 30,790,> 30,> 30,> 30,> 30
O=C(Nc1ccc(Cl)cc1)c1nccn1CCc1ccncc1,< 30,1320,> 30,> 30,> 30,> 30,940,> 30,> 30,> 30,> 30,> 30,> 30,380,> 30,> 30,> 30,> 30
O=C(Nc1ccc(C(F)(F)F)c(Cl)c1)c1nnnn1CCc1ccncc1,< 30,> 10000,> 30,> 30,> 30,> 30,> 10000,> 30,> 30,> 30,> 30,> 30,> 30,> 10000,> 30,> 30,> 30,> 30
Cc1cc(C(=O)Nc2ccc(OC(F)(F)F)cc2)n(CCc2ccncc2)n1,< 30,1340,> 30,> 30,> 30,> 30,2250,> 30,> 30,> 30,> 30,> 30,> 30,1190,> 30,> 30,> 30,> 30
